# Where a name gives a salt, the structure may show the parent alone. Read-outs that look alike come from different tables or passages of the source.
# Experiments:
# [1] = system: plasma protein, mostly albumin; conditions: concentration range of 20 to 2000 ng/mL, cited from earlier work
# histaminergic receptors = conditions: in vitro; cited from earlier work
# [2] = hepatic dysfunction vs healthy subjects, cross study comparison; cited from earlier work
# [3] = system: beta adrenergic receptors; conditions: in vitro; cited from earlier work
# dopaminergic receptors = conditions: in vitro; cited from earlier work
# muscarinic receptors = conditions: in vitro; cited from earlier work
# [4] = system: neuronal uptake of serotonin; conditions: in vitro as well as in vivo; cited from earlier work
# [5] = target: sigma-1 non-opioid receptor (Homo sapiens, UniProt Q99720); conditions: compared with all pharmaceutical chemicals tested so far; cited from earlier work
# Sequence of sigma-1 non-opioid receptor (Q99720 whole entry): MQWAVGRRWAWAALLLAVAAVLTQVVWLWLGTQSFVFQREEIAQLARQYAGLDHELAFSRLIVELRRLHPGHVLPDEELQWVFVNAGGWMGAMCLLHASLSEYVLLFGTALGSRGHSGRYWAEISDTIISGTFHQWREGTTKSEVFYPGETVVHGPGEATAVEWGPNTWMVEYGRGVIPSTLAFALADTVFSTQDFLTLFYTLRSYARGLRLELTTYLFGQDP
# [6] = system: alpha adrenergic receptors; conditions: in vitro; cited from earlier work
# [7] = cited from earlier work
# [8] = cited from earlier work; for Multiple dose elimination half-life: steady state
# [9] = cited from earlier work; remark: listed apart in the source
# [10] = in vivo; cited from earlier work
# [11] = cited from earlier work; remark: listed apart in the source
# cytokine storm = conditions: cited from earlier work
# [12] = fasted, n=34, cited from earlier work
# [13] = system: COVID-19 patients who required supplemental oxygen; assay: Retrospective clinical study of dronabinol plus standard of care in hospitalized COVID-19 patients requiring oxygen (Example 1); format: in vivo, human
# [14] = system: COVID-19-positive patients hospitalized for hypoxia; assay: Comparative analysis of dronabinol alone vs dronabinol plus fluvoxamine in COVID-19-positive patients hospitalized for hypoxia (Example 8, Table 6)
# Protocol: From October 2020 through December of 2020 a single infectious disease specialist treated consecutive adult COVID-19-positive patients hospitalized for hypoxia with oral dronabinol in addition to then current standard of care which consisted of ceftriaxone, azithromycin, dexamethasone, remdesivir, subcutaneous heparin, and convalescent plasma in addition to respiratory support per standard ICU protocols. Nine patients received 2.5 mg twice orally daily and 68 patients received 5 mg orally twice daily. A retrospective control group of consecutively treated COVID-19-positive patients hospitalized for hypoxia from June 2020 through August 2020, was treated with the same standard of care.
# 15, 2021, twelve consecutive un-vaccinated COVID-19-positive patients hospitalized for hypoxia were treated by a single physician. They received current standard of care which consisted of ceftriaxone, azithromycin, dexamethasone, remdesivir, and Eliquis in addition to respiratory support per standard ICU protocols. […] One patient was excluded from analysis due to pre-COVID-19 oxygen dependence, and because they were still in the hospital as of this writing on their twelfth hospital day.
# [15] = human, in vivo; cited from earlier work
# serotonin uptake = conditions: in vitro, rats; cited from earlier work
# norepinephrine reuptake = conditions: in vitro, rats; cited from earlier work
smiles,measurement,setting,value
"COCCCC/C(=N\OCCN)c1ccc(C(F)(F)F)cc1 [fluvoxamine, 2-[(E)-[5-methoxy-1-[4-(trifluoromethyl)phenyl]pentylidene]amino]oxyethanamine]",Bound to plasma protein,[1],Approximately 80%
same,Bound to plasma protein,[1]; listed as Fluvoxamine,80%
same,Affinity for histaminergic receptors,histaminergic receptors,no significant affinity
same,Decrease in clearance,[2],30%
same,Affinity for beta adrenergic receptors,[3],no significant affinity
same,Affinity for dopaminergic receptors,dopaminergic receptors,no significant affinity
same,Affinity for muscarinic receptors,muscarinic receptors,no significant affinity
same,Serotonin reuptake inhibition,[4],potent serotonin reuptake inhibitor
same,Agonistic sigma-1 binding affinity,[5],strongest agonistic sigma-1 binding affinity
same,Affinity for alpha adrenergic receptors,[6],no significant affinity
same,Mean plasma half-life at steady state,"[7]; human, in vivo, po",15.6 h
same,Excreted in urine unchanged,[7]; in vivo,Approximately 2%
same,Reduction of clearance,[8]; elderly patients,about 50%
same,Multiple dose elimination half-life,"[8]; elderly, 50 mg",17.4 h
same,Multiple dose elimination half-life,"[8]; elderly, 100 mg",25.9 h
same,Multiple dose elimination half-life,"[8]; young subjects, 50 mg",13.6 h
same,Multiple dose elimination half-life,"[8]; young subjects, 100 mg",15.6 h
"CCCCCc1cc(O)c2c(c1)OC(C)(C)[C@@H]1CCC(C)=C[C@@H]21 [dronabinol, (−)-(6aR,10aR)-6,6,9-trimethyl-3-pentyl-6a,7,8,10a-tetrahydro-6H-benzo[c]-chromen-1-ol]",Duration of appetite stimulant effect,[9]; after administration,≥ 24 h
same,Time to tolerance to cardiovascular and subjective adverse CNS effects,"[9]; healthy male volunteers (N=12), 210 mg/day orally in divided doses for 16 days",≤ 12 days
same,Persistence of appetite stimulant effect,"[9]; patients with AIDS, Δ9-THC capsules 2.5 mg/day to 20 mg/day",sustained for up to five months
same,Reported fatality from overdosage,[10],has not had a reported fatality from overdosage
same,Time for which low levels of metabolites are detected in urine and feces,[11]; following single dose administration,more than 5 weeks
same,Oral dose recovered unchanged in the feces,"[11]; in vivo, po",Less than 5%
same,Administered dose reaching the systemic circulation,[11]; oral dose,10-20%
same,Absorbed after oral dose,[11]; single oral doses,90-95%
same,Initial (alpha) half-life,[11]; two-compartment model,about 4 hours
same,Radio-labeled oral dose recovered from the feces,[11]; within 72 hours,about half
same,Mortality,cytokine storm; animal model of cytokine storm induced ARF and/or ARDS,decrease mortality
same,Prevention of death of animals that received a fatal dose of the biotoxin,cytokine storm; animal models,prevent the death of one hundred percent of all animals
same,"AUC (0-12), Mean (SD)",[12]; BID Dose 2.5 mg,2.88 (1.57) ng*hr/mL
same,"Cmax, Mean (SD)",[12]; BID Dose 2.5 mg,1.32 (0.62) ng/mL
same,Median Tmax (range),[12]; BID Dose 2.5 mg,1.00 (0.50-4.00) hr
same,"AUC (0-12), Mean (SD)",[12]; BID Dose 5 mg,6.16 (1.85) ng*hr/mL
same,"Cmax, Mean (SD)",[12]; BID Dose 5 mg,2.96 (1.81) ng/mL
same,Median Tmax (range),[12]; BID Dose 5 mg,2.50 (0.50-4.00) hr
same,"AUC (0-12), Mean (SD)",[12]; BID Dose 10 mg,15.2 (5.52) ng*hr/mL
same,"Cmax, Mean (SD)",[12]; BID Dose 10 mg,7.88 (4.54) ng/mL
same,Median Tmax (range),[12]; BID Dose 10 mg,1.50 (0.50-3.50) hr
same,Deaths,[13]; among the 77 patients in the treatment group,5
same,"Average first peak C-reactive protein (CRP) levels, difference (lower in treatment group)","[13]; vs control, p-value of 0.07, not statistically significant",14%
same,# Survived,"[14]; 2.5 mg Dronabinol, total 9 in group",8
same,LOS,"[14]; 5 mg Dronabinol, length of hospital stay",8.8
same,# Survived,"[14]; 5 mg Dronabinol, total 68 in group",64
COCCCC/C(=N\OCCN)c1ccc(C(F)(F)F)cc1 [fluvoxamine maleate],Time of maximum plasma concentrations at steady state,[15],3 to 8 h
COCCCC/C(=N\OCCO)c1ccc(C(F)(F)F)cc1 [fluvoxamine ethanol],Share of urinary excretion products,[7]; fluvoxamine ethanol,about 10%
NCCO/N=C(\CCCC(=O)O)c1ccc(C(F)(F)F)cc1 [fluvoxamine acid],Inhibition of serotonin uptake,serotonin uptake,weak effect
same,Potency relative to the parent compound (less potent),serotonin uptake,1-2 orders of magnitude
same,Norepinephrine reuptake inhibition,norepinephrine reuptake,inactive
same,Share of urinary excretion products,[7]; fluvoxamine acid together with its N-acetylated analog,about 60%
CCCCCc1cc(O)c2c(c1)OC(C)(C)[C@@H]1CCC(CO)=C[C@@H]21 [11-OH-delta-9-THC],Plasma concentration of principal active metabolite relative to Δ9-THC,[11]; plasma,approximately equal concentrations

# — US20250352561A1, “COMPOSITIONS AND METHODS USING TETRAHYDROCANNABINOL AND COMPOSITIONS INCLUDING SAME FOR TREATING INDICATIONS INVOLVING INFLAMMATION” (priority 2023, published 2025)
